{
  "source": "patent US20050065595A1",
  "about": "“Implants containing combretastatin a-4” (priority 2001, published 2005)",
  "key": {"[1]": {"system": "smooth muscle cells (SMCs)", "experiment": "SMC proliferation inhibition (BrdU-ELISA or cell counting)", "assay_type": "cell-based", "conditions": "for IC50: 96 h, SMCs, 2000 cells per well, BrdU-ELISA (paclitaxel: counting the number of cells), 24, 48, 72, 96 h", "procedure": "SMCs were plated out in a 96-well plate in a density of 2000 cells per well. After 24 h, different concentrations of the active substance were adjusted (10^−2 to 10^−10M). The proliferation was measured after 24, 48, 72, and 96 h following the addition of the active substance using a BrdU-ELISA or, in the case of paclitaxel, by counting the number of cells."}, "endothelial cells": {"system": "endothelial cells", "experiment": "Cell culture studies with endothelial cells after CA4 treatment", "assay_type": "cell-based", "conditions": "following a treatment with CA4"}, "alkaline phosphatases": {"system": "alkaline phosphatases", "conditions": "by alkaline phosphatases; cited from earlier work"}, "tumor cell lines": {"system": "tumor cell lines", "conditions": "cell culture studies, many different tumor cell lines; read-out: IC50, growth of tumor cell lines; cited from earlier work"}, "tumors": {"system": "tumors", "conditions": "various animal models; cited from earlier work"}, "neointimal development [2]": {"system": "neointimal development", "conditions": "swine; cited from earlier work"}, "neointimal development [3]": {"system": "neointimal development", "conditions": "animal experiments; cited from earlier work"}, "restenosis": {"system": "restenosis", "conditions": "vascular wall injured by balloon angioplasty and stent placement; cited from earlier work"}},
  "data": [
    {"compound": "COc1ccc(/C=C\\c2cc(OC)c(OC)c(OC)c2)cc1O", "note": "[CA4, 2-methoxy-5-[(1Z)-2-(3,4,5-trimethoxyphenyl)ethenyl]phenol]", "values": [
      {"measurement": "IC50", "setting": "[1]", "result": "~0.5", "unit": "nM"},
      {"measurement": "effectiveness relative to paclitaxel (SMC proliferation)", "setting": "[1]; CA4 vs paclitaxel", "result": "10 to 50", "unit": "times"},
      {"measurement": "recovery of endothelial cells versus SMCs after treatment", "setting": "endothelial cells", "result": "endothelial cells are able to recover more rapidly than the SMCs"}
    ]},
    {"compound": "COc1ccc(/C=C\\c2cc(OC)c(OC)c(OC)c2)cc1OP(=O)([O-])[O-].[Na+].[Na+]", "note": "[CA4P, disodium combretastatin-A4-3-O-phosphate]", "values": [
      {"measurement": "transformation into CA4 in vivo", "setting": "alkaline phosphatases", "result": "very rapidly transformed into CA4"},
      {"measurement": "IC50", "setting": "tumor cell lines", "result": "0.2 to 6", "unit": "nM"},
      {"measurement": "inhibition of tumor growth", "setting": "tumors", "result": "markedly inhibit the growth of tumors"}
    ]},
    {"compound": "CC(=O)O[C@H]1C(=O)[C@@]2(C)[C@H]([C@H](OC(=O)c3ccccc3)[C@]3(O)C[C@H](OC(=O)[C@H](O)[C@@H](NC(=O)c4ccccc4)c4ccccc4)C(C)=C1C3(C)C)[C@]1(OC(C)=O)CO[C@@H]1C[C@@H]2O", "note": "[paclitaxel]", "values": [
      {"measurement": "IC50", "setting": "[1]", "result": "~10", "unit": "nM"},
      {"measurement": "effect 6 months after implantation of coated stents", "setting": "neointimal development [2]", "result": "the effect had been neutralized"},
      {"measurement": "effect on neointimal development", "setting": "neointimal development [3]", "result": "inhibit the neointimal development"}
    ]},
    {"compound": "CO[C@H]1C[C@@H]2CC[C@@H](C)[C@@](O)(O2)C(=O)C(=O)N2CCCC[C@H]2C(=O)O[C@H]([C@H](C)C[C@@H]2CC[C@@H](O)[C@H](OC)C2)CC(=O)[C@H](C)/C=C(\\C)[C@@H](O)[C@@H](OC)C(=O)[C@H](C)C[C@H](C)/C=C/C=C/C=C/1C", "note": "[rapamycin]", "values": [
      {"measurement": "healing of the vascular wall", "setting": "restenosis", "result": "delayed healing of the vascular wall"}
    ]}
  ]
}
